Measured values reported in patent publication US8815882B2, “Pyrazole aminopyrimidine derivatives as LRRK2 modulators” (Genentech, Inc., priority 2010, dated 2014).

Target: T1, LRRK2 (Homo sapiens, UniProt Q5S007, G2019S)
T1 construct: purchased Invitrogen PV4882 (lot 567054A)
Experiment: In Vitro LRRK2 Assay (LabChip 3000, fluorescently-labeled peptide substrate, ATP)
Assay type: biochemical
Conditions: Table 10; LRRK2 Ki (micromolar); read-out: LRRK2 Ki (KI)
Outline: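 LRRK2, fluorescent peptide substrate (diluted to 4 μM before mixing), ATP and compound were incubated 2 h in the dark, then stopped. Phosphorylated and unphosphorylated peptide were separated by capillary electrophoresis and quantified by fluorescence. Ki was fitted with a tight-binding equation including enzyme concentration, S and Km; IC50 or percent inhibition were also reported.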

T1 sequence (Q5S007 whole entry G2019S): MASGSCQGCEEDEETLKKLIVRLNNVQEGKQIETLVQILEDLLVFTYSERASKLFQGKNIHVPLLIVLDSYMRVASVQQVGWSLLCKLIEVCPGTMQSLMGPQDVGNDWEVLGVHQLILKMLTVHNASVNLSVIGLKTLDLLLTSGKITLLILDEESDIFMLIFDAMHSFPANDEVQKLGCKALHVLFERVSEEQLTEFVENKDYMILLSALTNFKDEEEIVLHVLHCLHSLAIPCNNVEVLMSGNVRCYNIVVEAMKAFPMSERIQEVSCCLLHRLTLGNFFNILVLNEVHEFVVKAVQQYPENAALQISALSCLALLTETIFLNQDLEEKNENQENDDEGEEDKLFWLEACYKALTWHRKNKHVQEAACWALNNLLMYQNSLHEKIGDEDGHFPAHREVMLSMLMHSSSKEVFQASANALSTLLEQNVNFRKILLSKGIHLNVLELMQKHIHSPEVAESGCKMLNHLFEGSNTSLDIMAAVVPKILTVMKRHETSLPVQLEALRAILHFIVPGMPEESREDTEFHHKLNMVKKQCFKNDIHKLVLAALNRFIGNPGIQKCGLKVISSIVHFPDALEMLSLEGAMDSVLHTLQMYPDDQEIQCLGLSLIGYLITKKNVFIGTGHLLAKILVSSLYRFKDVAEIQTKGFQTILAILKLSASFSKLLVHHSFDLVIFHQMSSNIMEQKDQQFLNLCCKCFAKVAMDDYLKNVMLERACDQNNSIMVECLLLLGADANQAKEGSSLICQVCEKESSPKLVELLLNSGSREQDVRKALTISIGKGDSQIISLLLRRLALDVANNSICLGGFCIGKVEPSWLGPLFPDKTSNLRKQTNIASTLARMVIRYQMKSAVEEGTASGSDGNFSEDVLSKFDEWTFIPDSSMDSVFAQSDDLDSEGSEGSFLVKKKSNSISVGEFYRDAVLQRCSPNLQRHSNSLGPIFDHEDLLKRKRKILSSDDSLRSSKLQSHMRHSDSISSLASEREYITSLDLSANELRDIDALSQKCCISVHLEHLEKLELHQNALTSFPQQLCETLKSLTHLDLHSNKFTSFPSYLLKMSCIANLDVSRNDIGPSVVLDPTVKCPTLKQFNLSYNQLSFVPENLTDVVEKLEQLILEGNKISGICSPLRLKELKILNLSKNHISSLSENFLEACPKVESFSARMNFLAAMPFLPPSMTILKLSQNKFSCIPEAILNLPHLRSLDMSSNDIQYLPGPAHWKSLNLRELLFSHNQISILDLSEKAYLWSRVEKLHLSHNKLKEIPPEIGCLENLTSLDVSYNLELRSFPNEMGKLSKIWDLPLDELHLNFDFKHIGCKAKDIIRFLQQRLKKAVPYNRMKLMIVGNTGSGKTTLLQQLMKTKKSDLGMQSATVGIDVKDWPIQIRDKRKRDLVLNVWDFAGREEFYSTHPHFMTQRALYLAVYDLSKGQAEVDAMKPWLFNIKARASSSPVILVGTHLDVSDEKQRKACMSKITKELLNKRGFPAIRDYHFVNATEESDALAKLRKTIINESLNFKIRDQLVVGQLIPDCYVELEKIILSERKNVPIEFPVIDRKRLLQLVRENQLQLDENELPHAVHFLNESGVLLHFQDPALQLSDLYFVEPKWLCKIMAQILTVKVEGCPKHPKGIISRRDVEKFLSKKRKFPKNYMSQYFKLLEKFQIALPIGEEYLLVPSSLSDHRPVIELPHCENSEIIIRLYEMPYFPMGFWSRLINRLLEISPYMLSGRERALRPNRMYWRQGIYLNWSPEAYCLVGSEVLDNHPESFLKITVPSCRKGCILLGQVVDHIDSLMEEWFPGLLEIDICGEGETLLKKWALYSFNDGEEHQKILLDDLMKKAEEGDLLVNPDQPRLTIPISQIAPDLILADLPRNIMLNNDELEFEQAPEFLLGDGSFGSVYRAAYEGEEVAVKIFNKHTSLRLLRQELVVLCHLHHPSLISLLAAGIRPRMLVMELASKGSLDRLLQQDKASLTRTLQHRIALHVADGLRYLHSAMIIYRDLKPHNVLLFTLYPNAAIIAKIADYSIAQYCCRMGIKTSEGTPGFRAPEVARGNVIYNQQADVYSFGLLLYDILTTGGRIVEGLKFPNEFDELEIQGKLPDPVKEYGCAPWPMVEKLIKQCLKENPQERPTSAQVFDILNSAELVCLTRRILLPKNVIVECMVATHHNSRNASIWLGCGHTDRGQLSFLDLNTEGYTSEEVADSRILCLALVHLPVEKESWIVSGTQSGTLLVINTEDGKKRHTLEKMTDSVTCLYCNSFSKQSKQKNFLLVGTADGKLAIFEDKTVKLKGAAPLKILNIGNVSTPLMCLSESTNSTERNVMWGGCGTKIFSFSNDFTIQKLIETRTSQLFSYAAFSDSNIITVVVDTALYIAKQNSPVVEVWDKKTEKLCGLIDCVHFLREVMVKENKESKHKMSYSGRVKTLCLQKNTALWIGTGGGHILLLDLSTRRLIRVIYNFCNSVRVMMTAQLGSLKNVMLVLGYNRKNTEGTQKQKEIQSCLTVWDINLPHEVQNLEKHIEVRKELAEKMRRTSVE

SMILES	Ki
CNc1nc(Nc2cnn(CC(=O)N(C)C)c2C)ncc1C(F)(F)F [Example 395, N,N-dimethyl-2-(5-methyl-4-(4-(methylamino)-5-(trifluoromethyl)pyrimidim-2-ylamino)-1H-pyrazol-1-yl)acetamide]	0.015 µM
CNc1nc(Nc2cn(CC(=O)N(C)C)nc2C)ncc1C(F)(F)F [Example 396, N,N-dimethyl-2-(3-methyl-4-(4-(methylamino)-5-(trifluoromethyl)pyrimidin-2-ylamino)-1H-pyrazol-1-yl)acetamide]	0.004 µM
CNC(=O)Cn1cc(Nc2ncc(C(F)(F)F)c(NC)n2)c(C)n1 [Example 397, N-methyl-2-(3-methyl-4-(4-(methylamino)-5-(trifluoromethyl)pyrimidin-2-ylamino)-1H-pyrazol-1-yl)acetamide]	0.0095 µM
CNC(=O)Cn1ncc(Nc2ncc(C(F)(F)F)c(NC)n2)c1C [Example 398, N-methyl-2-(5-methyl-4-(4-(methylamino)-5-(trifluoromethyl)pyrimidin-2-ylamino)-1H-pyrazol-1-yl)acetamide]	0.003 µM
CNc1nc(Nc2cnn(C(C)(C)C(=O)N(C)C)c2C)ncc1C(F)(F)F [Example 399, N,N,2-trimethyl-2-(5-methyl-4-(4-(methylamino)-5-(trifluoromethyl)pyrimidin-2-ylamino)-1H-pyrazol-1-yl)propanamide]	0.314 µM
CNc1nc(Nc2cnn(C(C)(C)C(=O)N3CCCC3)c2C)ncc1C(F)(F)F [Example 400, 2-methyl-2-(5-methyl-4-(4-(methylamino)-5-(trifluoromethyl)pyrimidin-2-ylamino)-1H-pyrazol-1-yl)-1-(pyrrolidin-1-yl)propan-1-one]	0.404 µM
CNc1nc(Nc2cnn(C(C)(C)C#N)c2C)ncc1C(F)(F)F [Example 401, 2-methyl-2-(5-methyl-4-(4-(methylamino)-5-(trifluoromethyl)pyrimidin-2-ylamino)-1H-pyrazol-1-yl)propanenitrile]	0.0007 µM
CNc1nc(Nc2cn(C3(C#N)CC3)nc2C)ncc1C(F)(F)F [Example 402, 1-(3-methyl-4-(4-(methylamino)-5-(trifluoromethyl)pyrimidin-2-ylamino)-1H-pyrazol-1-yl)cyclopropane-carbonitrile]	0.0037 µM
CNc1nc(Nc2cn([C@H](C)C(=O)N3CCCC3)nc2C)ncc1C(F)(F)F [Example 403, (R)-2-(3-methyl-4-(4-(methylamino)-5-(trifluoromethyl)pyrimidin-2-ylamino)-1H-pyrazol-1-yl)-1-(pyrrolidin-l-yl)propan-1-one]	0.016 µM
CNc1nc(Nc2cn([C@H](C)C(=O)N(C)C)nc2C)ncc1C(F)(F)F [Example 404, (R)-N,N-dimethyl-2-(3-methyl-4-(4-(methylamino)-5-(trifluoromethyl)pyrimidin-2-ylamino)-1H-pyrazol-1-yl)propanamide]	0.018 µM
CNc1nc(Nc2cn([C@@H](C)C(=O)N3CCCC3)nc2C)ncc1C(F)(F)F [Example 405, (S)-2-(3-methyl-4 (4-(methylamino)-5-(trifluoromethyl)pyrimidin-2-ylamino)-1H-pyrazol-1-yl)-1-(pyrrolidin-1-yl)propan-1-one]	0.022 µM
CNc1nc(Nc2cn(C(C)(C)C(=O)OC)nc2C)ncc1C(F)(F)F [Example 408, methyl 2-methyl-2-(3-methyl-4-(4-(methylamino)-5-(trifluoromethyl)pyrimidin-2-ylamino)-1H-pyrazol-1-yl)propanoate]	0.0047 µM
CNc1nc(Nc2cnn(C(C)(C)C(=O)OC)c2C)ncc1C(F)(F)F [Example 409, methyl 2-methyl-2-(5-methyl-4-(4-(methylamino)-5-(trifluoromethyl)pyrimidin-2-ylamino)-1H-pyrazol-1-yl)propanoate]	0.0076 µM
CCc1nn(C(C)(C)C#N)cc1Nc1ncc(C(F)(F)F)c(NC)n1 [Example 410, 2-(3-ethyl-4-(4-(methylamino)-5-(trifluoromethyl)pyrimidin-2-ylamino)-1H-pyrazol-1-yl)-2-methylpropanenitrile]	0.01 µM
CNc1nc(Nc2cnn([C@H](C)C(=O)N3CCCC3)c2C)ncc1C(F)(F)F [Example 411, (R)-2-(5-methyl-4-(4-(methylamino)-5-(trifluoromethyl)pyrimidin-2-ylamino)-1H-pyrazol-1-yl)-1-(pyrrolidin-1-yl)propan-1-one]	0.039 µM
CNc1nc(Nc2cnn([C@H](C)C(=O)N(C)C)c2C)ncc1C(F)(F)F [Example 412, (R)-N,N-dimethyl-2-(5-methyl-4-(4-(methylamino)-5-(trifluoromethyl)pyrimidin-2-ylamino)-1H-pyrazol-1-yl)propanamide]	0.0284 µM
CNc1nc(Nc2cnn([C@@H](C)C(=O)N3CCCC3)c2C)ncc1C(F)(F)F [Example 413, (S)-2-(5-methyl-4-(4-(methylamino)-5-(trifluoromethyl)pyrimidin-2-ylamino)-1H-pyrazol-1-yl)-1-(pyrrolidin-1-yl)propan-1-one]	0.04 µM
CNc1nc(Nc2cnn([C@@H](C)C(=O)N(C)C)c2C)ncc1C(F)(F)F [Example 414, (S)-N,N-dimethyl-2-(5-methyl-4-(4-(methylamino)-5-(trifluoromethyl)pyrimidin-2-ylamino)-1H-pyrazol-1-yl)propanamide]	0.03 µM

SMILES	Ki
CNc1nc(Nc2cnn([C@@H](C)C#N)c2C)ncc1C(F)(F)F [Example 415, (S)-2-(5-methyl-4-(4-(methylamino)-5-(trifluoromethyl)pyrimidin-2-ylamino)-1H-pyrazol-1-yl)propanenitrile]	0.0095 µM
CNc1nc(Nc2cn([C@@H](C)C#N)nc2C)ncc1C(F)(F)F [Example 416, (S)-2-(3-methyl-4-(4-(methylamino)-5-(trifluoromethyl)pyrimidin-2-ylamino)-1H-pyrazol-1-yl)propanenitrile]	0.0019 µM
CNc1nc(Nc2cn(C(C)(C)C#N)nc2C)ncc1Cl [Example 417, 2-(4-(5-chloro-4-(methylamino)pyrimidin-2-ylamino)-3-methyl-1H-pyrazol-1-yl)-2-methylpropanenitrile]	0.0021 µM
CNc1nc(Nc2cnn(C(C)(C)C#N)c2Cl)ncc1C(F)(F)F [Example 418, 2-(5-chloro-4-(4-(methylamino)-5-(trifluoromethyl)pyrimidin-2-ylamino)-1H-pyrazol-1-yl)-2-methylpropanenitrile]	0.0019 µM
CNc1nc(Nc2cn(C(C)(C)C#N)nc2C2CC2)ncc1C(F)(F)F [Example 419, 2-(3-cyclopropyl-4-(4-(methylamino)-5-(trifluoromethyl)pyrimidin-2-ylamino)-1H-pyrazol-1-yl)-2-methylpropanenitrile]	0.001 µM
CNc1nc(Nc2cn(CC(C)(C)C#N)nc2C)ncc1C(F)(F)F [Example 420, 2,2-dimethyl-3-(3-methyl-4-(4-(methylamino)-5-(trifluoromethyl)pyrimidin-2-ylamino)-1H-pyrazol-1-yl)propanenitrile]	0.0028 µM
CNc1nc(Nc2cnn(C3(C#N)CC3)c2Cl)ncc1C(F)(F)F [Example 422, 1-(5-chloro-4-(4-(methylamino)-5-(trifluoromethyl)pyrimidin-2-ylamino)-1H-pyrazol-1-yl)cyclopropane-carbonitrile]	0.0023 µM
CNc1nc(Nc2cn(C(C)(C)C(=O)NC(C)(C)C)nc2C)ncc1C(F)(F)F [Example 423, N-tert-butyl-2-methyl-2-(3-methyl-4-(4-(methylamino)-5-(trifluoromethyl)pyrimidin-2-ylamino)-1H-pyrazol-1-yl)propanamide]	0.073 µM
CNc1nc(Nc2cn(C(C)(C)C(=O)NCC(F)(F)F)nc2C)ncc1C(F)(F)F [Example 424]	0.0063 µM
CCNC(=O)C(C)(C)n1ncc(Nc2ncc(C(F)(F)F)c(NC)n2)c1Cl [Example 425, 2-(5-chloro-4-(4-(methylamino)-5-(trifluoromethyl)pyrimidin-2-ylamino)-1H-pyrazol-1-yl)-N-ethyl-2-methyl propanamide]	0.0355 µM
CNc1nc(Nc2cnn(C(C)(C)C(=O)NCC3CC3)c2C)ncc1C(F)(F)F [Example 426, N-(cyclopropylmethyl)-2-methyl-2-(5-methyl-4-(4-(methylamino)-5-(trifluoromethyl)pyrimidin-2-ylamino)-1H-pyrazol-1-yl)propanamide]	0.009 µM
CNc1nc(Nc2cn(C(C)(C)C(=O)NCC3CC3)nc2C)ncc1C(F)(F)F [Example 427, N-(cyclopropylmethyl)-2-methyl-2-(3-methyl-4-(4-(methylamino)-5-(trifluoromethyl)pyrimidin-2-ylamino)-1H-pyrazol-1-yl)propanamide]	0.052 µM
CCNC(=O)C1(n2cc(Nc3ncc(C(F)(F)F)c(NC)n3)c(C)n2)CCC1 [Example 428]	0.024 µM
CNC(=O)C(C)(C)n1cc(Nc2ncc(C(F)(F)F)c(NC)n2)c(C)n1 [Example 432, N,2-dimethyl-2-(3-methyl-4-(4-(methylamino)-5-(trifluoromethyl)pyrimidin-2-ylamino)-1H-pyrazol-1-yl)propanamide]	0.0184 µM
COC(=O)C(C)(C)n1ncc(Nc2ncc(Cl)c(OC)n2)c1C [Example 434, 2-[4-(5-Chloro-4-methoxy-pyrimidin-2-ylamino)-5-methyl-pyrazol-1-yl]-2-methyl-propionic acid methyl ester]	0.0122 µM
COC(=O)C(C)(C)n1cc(Nc2ncc(Cl)c(OC)n2)c(C)n1 [Example 435, 2-[4-(5-Chloro-4-methoxy-pyrimidin-2-ylamino)-3-methyl-pyrazol-1-yl]-2-methyl-propionic acid methyl ester]	0.0355 µM
CNc1nc(Nc2cn([C@@H](C)C(=O)N(C)C)nc2C)ncc1C(F)(F)F [Example 436, (S)-N,N-Dimethyl-2-[3-methyl-4-(4-methylamino-5-trifluoromethyl-pyrimidin-2-ylamino)-pyrazol-1-yl]-propionamide]	0.0303 µM
CNc1nc(Nc2cn([C@H](C)C#N)nc2C)ncc1C(F)(F)F [Example 437]	0.0065 µM
